Measurements taken from the supplement of paper PMC4862054.

Assays:
Details in all cases: incubation time: 72 h
BT-474 [1] = assay: normalised response (% of control), CellTox Green; higher = less cell death (100 = DMSO, 0 = benzethonium chloride kill control)
Method in brief: (§1)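 Breast cancer cell lines were exposed for 72 h in 384-well plates to compound at 5 concentrations, 10-fold apart, covering a 10,000-fold range fixed for each compound. Plates were read for CellTox Green fluorescence and CellTiter-Glo luminescence and normalised to 0.1 % DMSO (100) and a positive kill control (0). Each value is the normalised signal at one concentration of the series.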

BT-549 [2] = assay: as above
Method in brief: as §1

CAL-120 [3] = assay: as above
Method in brief: as §1

CAL-148 [4] = assay: as above
Method in brief: as §1

CAL-51 [5] = assay: as above
Method in brief: as §1

CAL-85-1 [6] = assay: as above
Method in brief: as §1

DU-4475 [7] = assay: as above
Method in brief: as §1

HCC1143 [8] = assay: as above
Method in brief: as §1

HCC1599 [9] = assay: as above
Method in brief: as §1

HCC1937 [10] = assay: as above
Method in brief: as §1

HDQ-P1 [11] = assay: as above
Method in brief: as §1

Hs578T [12] = assay: as above
Method in brief: as §1

MCF-10A [13] = assay: as above
Method in brief: as §1

MDA-MB-231 [14] = assay: as above
Method in brief: as §1

MDA-MB-436 [15] = assay: as above
Method in brief: as §1

MDA-MB-453 [16] = assay: as above
Method in brief: as §1

MDA-MB-468 [17] = assay: as above
Method in brief: as §1

MFM-223 [18] = assay: as above
Method in brief: as §1

BT-474 [19] = assay: normalised response (% of control), CellTiter-Glo; higher = more viable cells (100 = DMSO, 0 = benzethonium chloride kill control)
Experimental: (§2)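 DSRT, 72 h incubation, CellTox Green / CellTiter-Glo readout. Signal is normalised to DMSO and benzethonium chloride controls. Value is the normalised response at dose 3.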

BT-549 [20] = assay: as above
Experimental: as §2

CAL-120 [21] = assay: as above
Experimental: as §2

CAL-148 [22] = assay: as above
Experimental: as §2

CAL-51 [23] = assay: as above
Experimental: as §2

CAL-85-1 [24] = assay: as above
Experimental: as §2

DU-4475 [25] = assay: as above
Experimental: as §2

HCC1143 [26] = assay: as above
Experimental: as §2

HCC1599 [27] = assay: as above
Experimental: as §2

HCC1937 [28] = assay: as above
Experimental: as §2

HDQ-P1 [29] = assay: as above
Experimental: as §2

Hs578T [30] = assay: as above
Experimental: as §2

MCF-10A [31] = assay: as above
Experimental: as §2

MDA-MB-231 [32] = assay: as above
Experimental: as §2

MDA-MB-436 [33] = assay: as above
Experimental: as §2

MDA-MB-453 [34] = assay: as above
Experimental: as §2

MDA-MB-468 [35] = assay: as above
Experimental: as §2

MFM-223 [36] = assay: as above
Experimental: as §2

SK-BR-3 = assay: as above
Experimental: as §2

SMILES	normalised response (BT-474 [1]) [%]	normalised response (BT-549 [2]) [%]	normalised response (CAL-120 [3]) [%]	normalised response (CAL-148 [4]) [%]	normalised response (CAL-51 [5]) [%]	normalised response (CAL-85-1 [6]) [%]	normalised response (DU-4475 [7]) [%]	normalised response (HCC1143 [8]) [%]	normalised response (HCC1599 [9]) [%]	normalised response (HCC1937 [10]) [%]	normalised response (HDQ-P1 [11]) [%]	normalised response (Hs578T [12]) [%]	normalised response (MCF-10A [13]) [%]	normalised response (MDA-MB-231 [14]) [%]	normalised response (MDA-MB-436 [15]) [%]	normalised response (MDA-MB-453 [16]) [%]	normalised response (MDA-MB-468 [17]) [%]	normalised response (MFM-223 [18]) [%]	normalised response (BT-474 [19]) [%]	normalised response (BT-549 [20]) [%]	normalised response (CAL-120 [21]) [%]	normalised response (CAL-148 [22]) [%]	normalised response (CAL-51 [23]) [%]	normalised response (CAL-85-1 [24]) [%]	normalised response (DU-4475 [25]) [%]	normalised response (HCC1143 [26]) [%]	normalised response (HCC1599 [27]) [%]	normalised response (HCC1937 [28]) [%]	normalised response (HDQ-P1 [29]) [%]	normalised response (Hs578T [30]) [%]	normalised response (MCF-10A [31]) [%]	normalised response (MDA-MB-231 [32]) [%]	normalised response (MDA-MB-436 [33]) [%]	normalised response (MDA-MB-453 [34]) [%]	normalised response (MDA-MB-468 [35]) [%]	normalised response (MFM-223 [36]) [%]	normalised response (SK-BR-3) [%]
COc1cccc2c1C(=O)c1c(O)c3c(c(O)c1C2=O)C[C@@](O)(C(C)=O)C[C@@H]3O[C@H]1C[C@H](N)[C@H](O)[C@H](C)O1 [Daunorubicin] (10 nM)	102	104	102	91.5	91.5	98.8	103	104	98.9	106	106	111	104	76	93.4	107	90.3	105	102	103	103	99.3	87.2	100	106	97	99.1	93.2	96.5	104	105	103	99.4	110	84.2	105	112
C[C@@H]1C=C2C(=O)O[C@@H]3CC[C@H](C1)[C@]23O [Galiellalactone] (500 nM)	99.7	89.4	103	99.8	115	93.5	105	73.3	116	100	110	105	104	114		104	126	96.2	102	101	106	120	109	100	103	109	101	107	103	104	109	110	101	105	101	110	108
CCOc1cc2ncc(C#N)c(Nc3ccc(OCc4ccccn4)c(Cl)c3)c2cc1NC(=O)/C=C/CN(C)C [Neratinib] (10 nM)	93.4	111	104	104	110	112	108	103	104	102	98.1	88.5	116	120	54.2	108	126	94.8	101	97.9	104	101	91.5	102	105	97.3	112	95.1	83.5	99.2	98.1	100	99.7	78.3	91.7	101	37.4
CN1CCN(c2ccc3nc(-c4c(N)c5c(F)cccc5[nH]c4=O)[nH]c3c2)CC1 [Dovitinib] (100 nM)	96.5	95.3	96	85.1	107	90.3	100	97.1	108	89.1	115	93.3	102	89.5	72.4	101	87.8	105	104	103	93.9	99.7	107	94.7	97.1	103	94.2	94.8	97.3	101	99.1	92.4	96.5	100	97.3	100	94.7
COC1=CC(c2cc3ccccc3[nH]2)=N/C1=C\c1[nH]c(C)cc1C [Obatoclax] (100 nM)	63	103	95	103	88.2	87.6	98.6	89.8	98.6	88.3	53.7	84.5	93.4	66.7		104	96.5	93.8	88.8	97.5	98.1	86	87.8	89.2	99.5	93.5	93	91.3	99.6	92.6	97.3	88.4	91.4	104	88.4	96.3	90.5
C#Cc1cccc(Nc2ncnc3cc(OC)c(OCCCCCCC(=O)NO)cc23)c1 [CUDC-101] (100 nM)	97	115	84.2	82.4	82.4	93.8	97	111	103	89.5	109	73.6	101	70.3		101	106	103	91.8	105	93.3	95.5	62.1	78.5	96.3	90.9	105	93.4	84	94.7	65.4	90.9	96.8	60.1	74.1	78.2	84.2
